Values joined by “and” are separate entries in the source; they are usually repeats but may differ in a detail not shown here. Equal entries are not always repeated.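 All cell lines were grown in 96-well plates and treated with compound for 48 hours. Abbreviation: GI50, concentration required for 50% inhibition of growth. TGI denotes the concentration required for complete inhibition of growth.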

For the first experiment, the system named is SW-620 colon. As to the kind of experiment: growth of human tumour cells (NCI), 48 h.
Consider `C[C@@]12C[C@@H](c3ccccc3O1)N1CCCCSC1=N2`, for which the TGI was > 100 µM.
On the same count and under the same terms, as for `COc1ccc(N2C(=O)C3c4[nH]c5ccccc5c4C4CCC(C(C)(C)C)CC4C3C2=O)c(C)c1` (stereo unspecified), the figure is > 100 µM; as for `C=C1c2nc3ccccc3n2C=C(c2ccccc2)N1c1ccc([N+](=O)[O-])cc1`, 59 µM.
`Cc1c2cnccc2c(C)c2c1c1ccccc1n2CCCN`: the GI50 is 0.035 µM; the TGI is 0.878 µM and 0.211 µM.
Take `O=C(O)c1cccc2c1/C(=N/Nc1ccccc1)CC2`: the TGI is > 100 µM.
The same measure, in the same setting: as for `O=C(NNC(=O)c1ccccc1SSc1ccccc1C(=O)NNC(=O)c1ccccc1S)c1ccccc1S`, the figure is > 100 µM.
On the same count and under the same terms, as for `CC1(C)N=C(/C(Cl)=[N+](/[O-])C(=O)c2ccc(F)cc2)C(C)(C)N1O`, the figure is 39.2 µM; as for `CN1CCN([C@H]2C[C@H]3[C@@H]4CC=C5C[C@@H](O)CC[C@]5(C)[C@H]4CC[C@]3(C)C2=O)CC1`, > 100 µM.
With `CCNC(=S)N/N=C/c1cc([N+](=O)[O-])ccc1O`, the TGI was > 100 µM.
On the same count and under the same terms, as for `Cc1cc(O)c2c(=O)c3ccccc3[nH]c2c1`, the figure is > 100 µM; as for `Oc1cccc2c(Cl)ccnc12`, 29.3 µM.
Same read-out and setting: as for `Clc1cc(OC2C3CC4CC(C3)CC2C4)nc(Cl)n1` (stereo unspecified), the figure is 29 µM; as for `Cc1ccc(SCC(CSCCO)OCn2cnc3c2NC(N)=NC32OCCO2)cc1` (stereo unspecified), > 100 µM.
On the same count and under the same terms, as for `COc1cc(/C=C/C(=N\NS(=O)(=O)c2ccc(C)cc2)c2sc(NNC(C)=O)nc2C)ccc1O`, the figure is > 100 µM; as for `Nc1cccc2cc(Cl)cnc12`, > 100 µM.

The subject of a further experiment is SR leukemia. As to the kind of experiment: growth of human tumour cells (NCI), 48 h.
For the compound `C[C@@]12C[C@@H](c3ccccc3O1)N1CCCCSC1=N2`, the TGI is > 100 µM.
On the same count and under the same terms, for `COc1ccc(N2C(=O)C3c4[nH]c5ccccc5c4C4CCC(C(C)(C)C)CC4C3C2=O)c(C)c1` (stereo unspecified) the value was > 100 µM.
The same measure, in the same setting: for `C=C1c2nc3ccccc3n2C=C(c2ccccc2)N1c1ccc([N+](=O)[O-])cc1` the value was > 70 µM; for `O=c1[nH]cc(N=Cc2cc(Cl)cc(Cl)c2O)c(=O)[nH]1`, 57.1 µM.
`Cc1c2cnccc2c(C)c2c1c1ccccc1n2CCCN` displayed a TGI of 0.349 µM.
On the same count and under the same terms, as for `O=C(O)c1cccc2c1/C(=N/Nc1ccccc1)CC2`, the figure is > 100 µM.
As for `O=C(NNC(=O)c1ccccc1SSc1ccccc1C(=O)NNC(=O)c1ccccc1S)c1ccccc1S`, the TGI was > 75.3 µM.
Same read-out and setting: as for `CC1(C)N=C(/C(Cl)=[N+](/[O-])C(=O)c2ccc(F)cc2)C(C)(C)N1O`, the figure is 27.8 µM; as for `CN1CCN([C@H]2C[C@H]3[C@@H]4CC=C5C[C@@H](O)CC[C@]5(C)[C@H]4CC[C@]3(C)C2=O)CC1`, 70.1 µM; as for `CCNC(=S)N/N=C/c1cc([N+](=O)[O-])ccc1O`, 59.3 µM.
Same read-out and setting: for `Cc1cc(O)c2c(=O)c3ccccc3[nH]c2c1` the value was 52.6 µM; for `Oc1cccc2c(Cl)ccnc12`, 9.57 µM.
Same read-out and setting: for `Clc1cc(OC2C3CC4CC(C3)CC2C4)nc(Cl)n1` (stereo unspecified) the value was 11.7 µM.
In the case of `Cc1ccc(SCC(CSCCO)OCn2cnc3c2NC(N)=NC32OCCO2)cc1` (stereo unspecified), the TGI is > 100 µM.
The same measure, in the same setting: for `COc1cc(/C=C/C(=N\NS(=O)(=O)c2ccc(C)cc2)c2sc(NNC(C)=O)nc2C)ccc1O` the value was > 100 µM; for `O=[N+]([O-])/C(C(Cl)=C(Cl)Cl)=C(\SCc1ccccc1)N1CCCCC1`, > 100 µM; for `Nc1cccc2cc(Cl)cnc12`, > 100 µM.

The subject of the next experiment is CCRF-CEM leukemia. Description: growth of human tumour cells (NCI), 48 h.
Take `C[C@@]12C[C@@H](c3ccccc3O1)N1CCCCSC1=N2`: the TGI is > 100 µM.
As to `COc1ccc(N2C(=O)C3c4[nH]c5ccccc5c4C4CCC(C(C)(C)C)CC4C3C2=O)c(C)c1` (stereo unspecified), the TGI is > 100 µM.
On the same count and under the same terms, for `C=C1c2nc3ccccc3n2C=C(c2ccccc2)N1c1ccc([N+](=O)[O-])cc1` the value was > 81.3 µM; for `O=c1[nH]cc(N=Cc2cc(Cl)cc(Cl)c2O)c(=O)[nH]1`, 99 µM.
For `Cc1c2cnccc2c(C)c2c1c1ccccc1n2CCCN`, the GI50 is 0.0966 µM and 0.0188 µM; the TGI is 0.75 µM and 0.215 µM.
`O=C(O)c1cccc2c1/C(=N/Nc1ccccc1)CC2`: the TGI is > 100 µM.
Same read-out and setting: as for `O=C(NNC(=O)c1ccccc1SSc1ccccc1C(=O)NNC(=O)c1ccccc1S)c1ccccc1S`, the figure is 24.4 µM; as for `CC1(C)N=C(/C(Cl)=[N+](/[O-])C(=O)c2ccc(F)cc2)C(C)(C)N1O`, 12.8 µM; as for `CN1CCN([C@H]2C[C@H]3[C@@H]4CC=C5C[C@@H](O)CC[C@]5(C)[C@H]4CC[C@]3(C)C2=O)CC1`, > 100 µM.
The same measure, in the same setting: as for `CCNC(=S)N/N=C/c1cc([N+](=O)[O-])ccc1O`, the figure is 38.6 µM; as for `Cc1cc(O)c2c(=O)c3ccccc3[nH]c2c1`, > 100 µM; as for `Oc1cccc2c(Cl)ccnc12`, 2.52 µM.
Same read-out and setting: as for `Clc1cc(OC2C3CC4CC(C3)CC2C4)nc(Cl)n1` (stereo unspecified), the figure is 38.8 µM.
Regarding `Cc1ccc(SCC(CSCCO)OCn2cnc3c2NC(N)=NC32OCCO2)cc1` (stereo unspecified), the TGI was > 100 µM.
On the same count and under the same terms, for `COc1cc(/C=C/C(=N\NS(=O)(=O)c2ccc(C)cc2)c2sc(NNC(C)=O)nc2C)ccc1O` the value was > 100 µM; for `O=[N+]([O-])/C(C(Cl)=C(Cl)Cl)=C(\SCc1ccccc1)N1CCCCC1`, 30.5 µM.
Same read-out and setting: for `Nc1cccc2cc(Cl)cnc12` the value was > 100 µM.

A further experiment has as its system 786-0 renal. As to the kind of experiment: growth of human tumour cells (NCI), 48 h.
`C[C@@]12C[C@@H](c3ccccc3O1)N1CCCCSC1=N2`: the TGI is > 100 µM.
On the same count and under the same terms, for `COc1ccc(N2C(=O)C3c4[nH]c5ccccc5c4C4CCC(C(C)(C)C)CC4C3C2=O)c(C)c1` (stereo unspecified) the value was > 100 µM.
On the same count and under the same terms, as for `C=C1c2nc3ccccc3n2C=C(c2ccccc2)N1c1ccc([N+](=O)[O-])cc1`, the figure is 4.13 µM; as for `O=c1[nH]cc(N=Cc2cc(Cl)cc(Cl)c2O)c(=O)[nH]1`, 62.2 µM.
The compound `Cc1c2cnccc2c(C)c2c1c1ccccc1n2CCCN` yielded a TGI of 0.564 µM.
On the same count and under the same terms, as for `O=C(O)c1cccc2c1/C(=N/Nc1ccccc1)CC2`, the figure is > 100 µM; as for `O=C(NNC(=O)c1ccccc1SSc1ccccc1C(=O)NNC(=O)c1ccccc1S)c1ccccc1S`, 98 µM.
`CC1(C)N=C(/C(Cl)=[N+](/[O-])C(=O)c2ccc(F)cc2)C(C)(C)N1O` returned a TGI of 27.7 µM.
Same read-out and setting: for `CN1CCN([C@H]2C[C@H]3[C@@H]4CC=C5C[C@@H](O)CC[C@]5(C)[C@H]4CC[C@]3(C)C2=O)CC1` the value was > 100 µM.
The same measure, in the same setting: for `CCNC(=S)N/N=C/c1cc([N+](=O)[O-])ccc1O` the value was > 100 µM; for `Cc1cc(O)c2c(=O)c3ccccc3[nH]c2c1`, > 100 µM.
On the same count and under the same terms, for `Oc1cccc2c(Cl)ccnc12` the value was > 100 µM.
In turn, `Clc1cc(OC2C3CC4CC(C3)CC2C4)nc(Cl)n1` (stereo unspecified) displayed a TGI of 33.5 µM.
Same read-out and setting: as for `Cc1ccc(SCC(CSCCO)OCn2cnc3c2NC(N)=NC32OCCO2)cc1` (stereo unspecified), the figure is > 100 µM; as for `COc1cc(/C=C/C(=N\NS(=O)(=O)c2ccc(C)cc2)c2sc(NNC(C)=O)nc2C)ccc1O`, > 100 µM.
The same measure, in the same setting: for `O=[N+]([O-])/C(C(Cl)=C(Cl)Cl)=C(\SCc1ccccc1)N1CCCCC1` the value was 36.3 µM.
On the same count and under the same terms, as for `Nc1cccc2cc(Cl)cnc12`, the figure is > 100 µM.

A further experiment deals with MDA-N. Description: growth of human tumour cells (NCI), 48 h.
As for `C[C@@]12C[C@@H](c3ccccc3O1)N1CCCCSC1=N2`, the TGI was > 100 µM.
The same measure, in the same setting: as for `COc1ccc(N2C(=O)C3c4[nH]c5ccccc5c4C4CCC(C(C)(C)C)CC4C3C2=O)c(C)c1` (stereo unspecified), the figure is > 100 µM; as for `C=C1c2nc3ccccc3n2C=C(c2ccccc2)N1c1ccc([N+](=O)[O-])cc1`, 43.5 µM; as for `O=c1[nH]cc(N=Cc2cc(Cl)cc(Cl)c2O)c(=O)[nH]1`, 93.1 µM.
Regarding `Cc1c2cnccc2c(C)c2c1c1ccccc1n2CCCN`, the TGI is 1.39 µM.
Same read-out and setting: as for `O=C(O)c1cccc2c1/C(=N/Nc1ccccc1)CC2`, the figure is > 100 µM; as for `O=C(NNC(=O)c1ccccc1SSc1ccccc1C(=O)NNC(=O)c1ccccc1S)c1ccccc1S`, > 100 µM; as for `CC1(C)N=C(/C(Cl)=[N+](/[O-])C(=O)c2ccc(F)cc2)C(C)(C)N1O`, 29.9 µM.
As for `CN1CCN([C@H]2C[C@H]3[C@@H]4CC=C5C[C@@H](O)CC[C@]5(C)[C@H]4CC[C@]3(C)C2=O)CC1`, the TGI was > 100 µM.
Same read-out and setting: for `CCNC(=S)N/N=C/c1cc([N+](=O)[O-])ccc1O` the value was > 100 µM; for `Cc1cc(O)c2c(=O)c3ccccc3[nH]c2c1`, > 100 µM; for `Oc1cccc2c(Cl)ccnc12`, > 100 µM.
Same read-out and setting: as for `Clc1cc(OC2C3CC4CC(C3)CC2C4)nc(Cl)n1` (stereo unspecified), the figure is 53.9 µM; as for `Cc1ccc(SCC(CSCCO)OCn2cnc3c2NC(N)=NC32OCCO2)cc1` (stereo unspecified), > 100 µM; as for `COc1cc(/C=C/C(=N\NS(=O)(=O)c2ccc(C)cc2)c2sc(NNC(C)=O)nc2C)ccc1O`, > 100 µM.
Same read-out and setting: for `O=[N+]([O-])/C(C(Cl)=C(Cl)Cl)=C(\SCc1ccccc1)N1CCCCC1` the value was 50.3 µM; for `Nc1cccc2cc(Cl)cnc12`, > 100 µM.

The next experiment has as its system K-562 leukemia. As to the kind of experiment: growth of human tumour cells (NCI), 48 h.
Consider `C[C@@]12C[C@@H](c3ccccc3O1)N1CCCCSC1=N2`, for which the TGI was > 100 µM.
The same measure, in the same setting: as for `COc1ccc(N2C(=O)C3c4[nH]c5ccccc5c4C4CCC(C(C)(C)C)CC4C3C2=O)c(C)c1` (stereo unspecified), the figure is > 100 µM; as for `C=C1c2nc3ccccc3n2C=C(c2ccccc2)N1c1ccc([N+](=O)[O-])cc1`, 58.2 µM.
On the same count and under the same terms, for `O=c1[nH]cc(N=Cc2cc(Cl)cc(Cl)c2O)c(=O)[nH]1` the value was > 100 µM.
For `Cc1c2cnccc2c(C)c2c1c1ccccc1n2CCCN`, the GI50 is 0.0402 µM; the TGI was 0.794 µM and 0.598 µM.
As for `O=C(O)c1cccc2c1/C(=N/Nc1ccccc1)CC2`, the TGI was > 100 µM.
Still for that read-out and setting: as for `O=C(NNC(=O)c1ccccc1SSc1ccccc1C(=O)NNC(=O)c1ccccc1S)c1ccccc1S`, the figure is > 100 µM; as for `CC1(C)N=C(/C(Cl)=[N+](/[O-])C(=O)c2ccc(F)cc2)C(C)(C)N1O`, 17.3 µM.
As for `CN1CCN([C@H]2C[C@H]3[C@@H]4CC=C5C[C@@H](O)CC[C@]5(C)[C@H]4CC[C@]3(C)C2=O)CC1`, the TGI was > 100 µM.
Still for that read-out and setting: for `CCNC(=S)N/N=C/c1cc([N+](=O)[O-])ccc1O` the value was > 100 µM.
On the same count and under the same terms, for `Oc1cccc2c(Cl)ccnc12` the value was 5.96 µM.
Still for that read-out and setting: for `Clc1cc(OC2C3CC4CC(C3)CC2C4)nc(Cl)n1` (stereo unspecified) the value was 24.1 µM; for `Cc1ccc(SCC(CSCCO)OCn2cnc3c2NC(N)=NC32OCCO2)cc1` (stereo unspecified), > 100 µM.
On to `O=[N+]([O-])/C(C(Cl)=C(Cl)Cl)=C(\SCc1ccccc1)N1CCCCC1`, for which the TGI is > 100 µM.
In the case of `Nc1cccc2cc(Cl)cnc12`, the TGI was > 100 µM.

The record behind these values is PubChem BioAssay (NCI).
